The results in this text go back to patent US12521329B2, “Antimicrobial mixture containing 4-(3-ethoxy-4-hydroxyphenyl) butan-2-one, and cosmetic composition containing same” (L'OREAL, priority 2017, dated 2026).

What all share (assay): MIC / synergy (FIC index) microplate growth test, optical density 620 nm
Format in all cases: cell-based

In experiment [1] the test system is Staphylococcus aureus ATCC 6538. Particulars: Example 1. As to the method: The microbial strain Staphylococcus aureus ATCC 6538 and a double-concentration nutrient broth liquid culture medium were used.
(§1) A 96-well microplate at an incubation temperature of 32.5° C. is used.
(§2) The incubation time of the microplate for the abovementioned two strains is: • from 18 to 24 h aerobically for Candida albicans and Staphylococcus aureus. • from 24 hours to 48 hours aerobically for Aspergillus niger Tests
(§3) A 10% (weight/volume) stock solution was prepared by mixing 1 g of compound in 9 ml of aqueous 1‰ agar solution. Successive dilutions were made with the 1‰ agar solution.
(§4) 50 μl of each of the daughter solutions obtained containing compound A or B are added to the microplate wells. 100 μl of Sabouraud liquid nutrient broth inoculated at double concentration with the Candida albicans strain and 50 μl of aqueous 1‰ agar solution are also added thereto.
(§5) 50 μl of each of the daughter solutions obtained containing compound A and 50 μl of each of the daughter solutions obtained containing compound B are added to the microplate wells. 100 μl of Sabouraud liquid nutrient broth inoculated at double concentration with the Candida albicans strain are also added thereto.
(§6) A positive microbial growth control was also prepared. The positive microbial growth control corresponds to the mixture of 100 μl of aqueous 1‰ agar solution with 100 μl of Sabouraud liquid nutrient broth inoculated at double concentration with the Candida albicans strain in the absence of compounds A and B.
(§7) An absorbance control was performed in parallel on compounds A and B alone. This control corresponds to 100 μl of double concentration sterile Sabouraud liquid nutrient broth+100 μl of double concentration compound A or B.
(§8) In the three cases (absorbance control, growth control and test), the final volume present in each of the microplate wells is 200 μl.
(§9) In the two cases (test and control), the inoculum represents the concentration of the Candida albicans strain present in the final volume of the wells (200 μl) and is between 2 and 6×10^5 cfu/ml of Candida albicans.
(§10) The minimum inhibitory concentration (MIC) of each compound A and B alone and in combination was determined in a known manner by means of optical density measurements at a wavelength of 620 nm.
The test as described above (tests, absorbance control and growth control) was performed again to test the combination A+B on the Staphylococcus aureus strain and on the Aspergillus niger strain as appropriate.

Experiment [2] relates to Candida albicans ATCC 10231. As to the method:
The microbial strain Candida albicans ATCC 10231 and a double-concentration Sabouraud broth liquid culture medium were used.
as §1, §2, §3, §4, §5, §6, §7, §8, §9, §10

For experiment [3], the system named is Aspergillus niger ATCC 6275. Particulars: Example 5. An excerpt:
FIC Index=(MIC of A with B/MIC of A)+(MIC of B with A/MIC of B) with: • MIC of A with B: minimum concentration of product A in the combination A+B which makes it possible to obtain an inhibitory effect; • MIC of B with A: minimum concentration of product B in the combination A+B which makes it possible to obtain an inhibitory effect; • MIC of A: minimum inhibitory concentration of product A alone; • MIC of B: minimum inhibitory concentration of product B alone. […] A 96-well microplate at an incubation temperature of 32.5° C. is used. The incubation time of the microplate for the abovementioned two strains is: • from 18 to 24 h aerobically for Candida albicans and Staphylococcus aureus. • from 24 hours to 48 hours aerobically for Aspergillus niger Tests […] Successive dilutions were made with the 1‰ agar solution. 50 μl of each of the daughter solutions obtained containing compound A or B are added to the microplate wells. 100 μl of Sabouraud liquid nutrient broth inoculated at double concentration with the Candida albicans strain and 50 μl of aqueous 1‰ agar solution are also added thereto. 50 μl of each of the daughter solutions obtained containing compound A and 50 μl of each of the daughter solutions obtained containing compound B are added to the microplate wells. 100 μl of Sabouraud liquid nutrient broth inoculated at double concentration with the Candida albicans strain are also added thereto. A positive microbial growth control was also prepared. […] An absorbance control was performed in parallel on compounds A and B alone. This control corresponds to 100 μl of double concentration sterile Sabouraud liquid nutrient broth+100 μl of double concentration compound A or B. […] In the two cases (test and control), the inoculum represents the concentration of the Candida albicans strain present in the final volume of the wells (200 μl) and is between 2 and 6×10^5 cfu/ml of Candida albicans. […] The test as described above (tests, absorbance control and growth control) was performed again to test the combination A+B on the Staphylococcus aureus strain and on the Aspergillus niger strain as appropriate.

`CCOc1cc(CCC(C)=O)ccc1O` [A, 4-(3-ethoxy-4-hydroxyphenyl)butan-2-one]: the microbial growth percentage in experiment [1] (0.0625 weight % A alone) is recorded as 87%; in experiment [1] (0.125 weight % A alone), 77%; in experiment [1] (0.25 weight % A alone), 78%; in experiment [1] (0.5 weight % A alone), 4%; in experiment [2] (Example 1, 0.025 weight % A alone), 84%; in experiment [2] (Example 1, 0.05 weight % A alone) it was 71%. For the same compound, the microbial growth percentage in experiment [2] (Example 1, 0.1 weight % A alone) worked out at 48%; in experiment [2] (Example 1, 0.2 weight % A alone), 10%; in experiment [2] (Example 2, 0.025 weight % A alone) it was 52%; in experiment [2] (Example 2, 0.05 weight % A alone), 31%; in experiment [2] (Example 2, 0.1 weight % A alone), 18%; in experiment [2] (Example 3, 0.025 weight % A alone), 71%. The microbial growth percentage in experiment [2] (Example 3, 0.05 weight % A alone) is 65%; in experiment [2] (Example 3, 0.1 weight % A alone) it was 44%; in experiment [2] (Example 3, 0.2 weight % A alone), 4%; in experiment [2] (Example 4, 0.025 weight % A alone), 83%; in experiment [2] (Example 4, 0.05 weight % A alone), 71%; in experiment [2] (Example 4, 0.1 weight % A alone), 46%. Further, the microbial growth percentage in experiment [2] (Example 4, 0.2 weight % A alone) is reported as 6%; in experiment [2] (Example 5, 0.025 weight % A alone), 56%; in experiment [2] (Example 5, 0.05 weight % A alone), 39%; in experiment [2] (Example 5, 0.1 weight % A alone), 17%; in experiment [3] (0.0625 weight % A alone), 85%; in experiment [3] (0.125 weight % A alone) it was 43%. The microbial growth percentage in experiment [3] (0.25 weight % A alone) is given as 4%. For the same compound, the “% MIC of A alone” value in experiment [1] (growth <= 20%, or even < 25%) is 0.5%; in experiment [2] (Example 1, growth <= 20%, or even < 25%) it was 0.2%; in experiment [2] (Example 3) it was 0.2%; in experiment [2] (Example 4), 0.2%; in experiment [2] (Example 5), 0.1%; in experiment [3], 0.25%. The “% MIC A” value in experiment [2] (Example 2, A alone) is 0.1%.

Take `Cc1cc(CC(C)CC(C)(C)C)n(O)c(=O)c1.NCCO` (centres unmarked) [B2, piroctone olamine, reference compound]: the microbial growth percentage in experiment [2] (Example 2, 0.00125 weight % B2 alone) is on record as 35%; in experiment [2] (Example 2, 0.0025 weight % B2 alone) it was 0%.

For the compound `O=C1C(N(CO)C(=O)NCO)N(CO)C(=O)N1CO` (centres unmarked) [B3, 1-[1,3-bis(hydroxymethyl)-2,5-dioxoimidazolidin-4-yl]-1,3-bis(hydroxymethyl)urea], the “% MIC of B3 alone” value in experiment [2] (Example 3) was determined as 0.125%. For the same compound, the microbial growth percentage in experiment [2] (Example 3, 0.0625 weight % B3 alone) came to 55%; in experiment [2] (Example 3, 0.125 weight % B3 alone), 10%.

In the case of `N=C(N)c1ccc(OCCCCCCOc2ccc(C(=N)N)cc2)cc1` [B4, hexamidine diisethionate, reference compound], the “% MIC of B4 alone” value in experiment [2] (Example 4) was found to be 0.005%. Further, the microbial growth percentage in experiment [2] (Example 4, 0.00125 weight % B4 alone) was determined as 78%; in experiment [2] (Example 4, 0.0025 weight % B4 alone) it was 59%; in experiment [2] (Example 4, 0.005 weight % B4 alone), 3%.
